Source: patent US8927550B2, “Heterocyclic compounds as CCR1 receptor antagonists” (Boehringer Ingelheim International GmbH, priority 2009, dated 2015)

Each compound was assayed against T1, CCR1 (Homo sapiens, UniProt P32246) (assay: Calcium flux in CCR1 transfected cells, Method B (Calcium 4 dye, HAMAMATSU FDSS6000), MIP-1alpha at EC80). Conditions: cells stably expressing recombinant CCR1 and G-alpha-16, 30 minutes at 37 C then 30 minutes at room temperature.
T1 construct: host or cells: Non-adherent cells
T1 sequence (P32246 1-355): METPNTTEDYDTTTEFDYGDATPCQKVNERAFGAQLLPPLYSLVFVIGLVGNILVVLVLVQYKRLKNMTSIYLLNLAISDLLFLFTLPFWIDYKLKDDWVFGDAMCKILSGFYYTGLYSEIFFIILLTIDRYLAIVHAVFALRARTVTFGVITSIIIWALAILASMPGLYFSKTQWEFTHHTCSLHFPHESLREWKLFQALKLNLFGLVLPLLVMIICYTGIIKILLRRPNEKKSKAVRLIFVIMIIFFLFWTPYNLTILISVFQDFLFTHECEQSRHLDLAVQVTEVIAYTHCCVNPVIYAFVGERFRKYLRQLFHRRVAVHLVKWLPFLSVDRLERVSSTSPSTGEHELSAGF
Format: cell-based
Description: Compounds are assessed for the ability to block the interaction of CCR1 and MIP-1α in a functional cellular assay measuring calcium flux in CCR1 transfected cells.
Method B: Non-adherent cells purchased from Chemicon Corporation (HTS005C), stably expressing recombinant CCR1 and G-alpha-16 are grown in RPMI 1640 medium (Mediatech 10-080-CM) supplemented with 10% FBS, 0.4 mg/mL Geneticin and penicillin/streptomycin. On the day of the assay, the cells are loaded with Calcium 4 dye (Molecular Devices R7448) with Probenecid (Invitrogen P346400) at 8E5 cells/mL for 1 hour at room temperature. After 1 hour, they are seeded in a 384-well tissue culture-treated plate at a density of 20,000 cells/well. Appropriately diluted test compound is added to the well to achieve a top concentration of 3,000 nM (diluted 4-fold with 10 doses total). The final concentration of DMSO is 1%. The buffer is HBSS (Invitrogen 14025) with 20 mM HEPES at pH 7.4. The cells incubate 30 minutes at 37 C and then 30 minutes at room temperature. The plates are transferred to the HAMAMATSU FDSS6000 where MIP-1alpha in 1% BSA is added at the EC80 final concentration. All plates must be read within 4 hours of the start of dye-loading. Wells+/−MIP-1alpha containing diluted DMSO instead of compound serve as the controls. Data are analyzed using Activity Base software.
`CS(=O)(=O)c1cc(CNC(=O)c2nncc3c2cnn3-c2ccc(F)cc2)ccn1` [1-(4-Fluorophenyl)-1H-pyrazolo[3,4-d]pyridazine-4-carboxylic acid (2-methanesulfonyl-pyridin-4-ylmethyl)-amide] showed an IC50 of 91 nM. In the case of `C[C@H](NC(=O)c1nncc2c1cnn2-c1ccc(F)cc1)c1ccnc(S(C)(=O)=O)c1` [1-(4-Fluorophenyl)-1H-pyrazolo[3,4-d]pyridazine-4-carboxylic acid [(S)-1-(2-methanesulfonyl-pyridin-4-yl)-ethyl]-amide], the IC50 is reported as 57 nM. Compound `CC[C@H](NC(=O)c1nncc2c1cnn2-c1ccc(F)cc1)c1ccnc(S(C)(=O)=O)c1` [1-(4-Fluorophenyl)-1H-pyrazolo[3,4-d]pyridazine-4-carboxylic acid [(S)-1-(2-methanesulfonyl-pyridin-4-yl)-propyl]-amide] has an IC50 of 3 nM. In the case of `CC[C@H](NC(=O)c1nncc2c1cnn2-c1ccc(F)cc1)c1ccc(S(C)(=O)=O)nc1` [1-(4-Fluorophenyl)-1H-pyrazolo[3,4-d]pyridazine-4-carboxylic acid [(S)-1-(6-methanesulfonyl-pyridin-3-yl)-propyl]-amide], the IC50 is reported as 44 nM. For `CS(=O)(=O)c1cccc(CNC(=O)c2cncc3c2ccn3-c2ccc(F)cc2)c1` [1-(4-Fluorophenyl)-1H-pyrrolo[2,3-c]pyridine-4-carboxylic acid 3-methanesulfonyl-benzylamide], the IC50 was 565 nM. `CS(=O)(=O)c1cc(CNC(=O)c2cncc3c2ccn3-c2ccc(F)cc2)ccn1` [1-(4-Fluorophenyl)-1H-pyrrolo[2,3-c]pyridine-4-carboxylic acid (2-methanesulfonyl-pyridin-4-ylmethyl)-amide] gave an IC50 of 455 nM. `C[C@H](NC(=O)c1cncc2c1ccn2-c1ccc(F)cc1)c1ccnc(S(C)(=O)=O)c1` [1-(4-Fluorophenyl)-1H-pyrrolo[2,3-c]pyridine-4-carboxylic acid [(S)-1-(2-methanesulfonyl-pyridin-4-yl)-ethyl]-amide] was tested, and the IC50 was 45 nM. `CC[C@H](NC(=O)c1cncc2c1ccn2-c1ccc(F)cc1)c1ccnc(S(C)(=O)=O)c1` [1-(4-Fluorophenyl)-1H-pyrrolo[2,3-c]pyridine-4-carboxylic acid [(S)-1-(2-methanesulfonyl-pyridin-4-yl)-propyl]-amide] was tested, and the IC50 was 2 nM. Compound `CC[C@H](NC(=O)c1cncc2c1ccn2-c1ccc(F)cc1)c1cnc(S(C)(=O)=O)s1` [1-(4-Fluorophenyl)-1H-pyrrolo[2,3-c]pyridine-4-carboxylic acid [(S)-1-(2-methanesulfonyl-thiazol-5-yl)-propyl]-amide] has an IC50 of 23 nM. Compound `CC[C@H](NC(=O)c1cncc2c1ccn2-c1ccc(F)cc1)c1cncc(S(C)(=O)=O)c1` [1-(4-Fluorophenyl)-1H-pyrrolo[2,3-c]pyridine-4-carboxylic acid [(S)-1-(5-methanesulfonyl-pyridin-3-yl)-propyl]-amide] has an IC50 of 2 nM. With `CC[C@H](NC(=O)c1cncc2c1ccn2-c1ccc(F)cc1)c1ccc(S(C)(=O)=O)nc1` [1-(4-Fluorophenyl)-1H-pyrrolo[2,3-c]pyridine-4-carboxylic acid [(S)-1-(6-methanesulfonyl-pyridin-3-yl)-propyl]-amide] the IC50 was 21 nM. In the case of `CNS(=O)(=O)c1ccc(CNC(=O)c2cc(O)cc3c2ccn3-c2ccc(F)cc2)cc1` [1-(4-Fluorophenyl)-6-hydroxy-1H-indole-4-carboxylic acid 4-methylsulfamoyl-benzylamide], the IC50 is reported as 1400 nM. `CC[C@H](NC(=O)c1cc(S(C)(=O)=O)cc2c1ccn2-c1ccc(F)cc1)c1ccc(S(C)(=O)=O)nc1` [1-(4-Fluorophenyl)-6-methanesulfonyl-1H-indole-4-carboxylic acid [(S)-1-(6-methanesulfonyl-pyridin-3-yl)-propyl]-amide] was tested, and the IC50 was 260 nM. For `CC[C@H](NC(=O)c1cccc2c(-c3ccc(F)cc3)ncn12)c1ccc(Br)nc1` [1-(4-Fluorophenyl)-imidazo[1,5-a]pyridine-5-carboxylic acid [(S)-1-(6-bromopyridin-3-yl)-propyl]-amide], the IC50 was 96 nM. With `CC[C@H](NC(=O)c1cccc2c(-c3ccc(F)cc3)ncn12)c1ccc(S(C)(=O)=O)nc1` [1-(4-Fluorophenyl)-imidazo[1,5-a]pyridine-5-carboxylic acid [(S)-1-(6-methanesulfonyl-pyridin-3-yl)-propyl]-amide] the IC50 was 19 nM. `CCC[C@H](NC(=O)c1cccn2c(-c3ccc(F)cc3)cnc12)c1ccc(Br)nc1` [3-(4-Fluorophenyl)-imidazo[1,2-a]pyridine-8-carboxylic acid [(S)-1-(6-bromopyridin-3-yl)-butyl]-amide] was tested, and the IC50 was 1100 nM. Compound `CC[C@H](NC(=O)c1cccn2c(-c3ccc(F)cc3)cnc12)c1ccc(Br)nc1` [3-(4-Fluorophenyl)-imidazo[1,2-a]pyridine-8-carboxylic acid [(S)-1-(6-bromopyridin-3-yl)-propyl]-amide] has an IC50 of 1340 nM. `CS(=O)(=O)c1cc(CNC(=O)c2nccn3c(-c4ccc(F)cc4)ncc23)ccn1` [3-(4-Fluorophenyl)-imidazo[1,5-a]pyrazine-8-carboxylic acid (2-methanesulfonyl-pyridin-4-ylmethyl)-amide] showed an IC50 of 600 nM. Work on `CC(C)(NC(=O)c1nccn2c(-c3ccc(F)cc3)ncc12)c1ccnc(Br)c1` [3-(4-Fluorophenyl)-imidazo[1,5-a]pyrazine-8-carboxylic acid [1-(2-bromopyridin-4-yl)-1-methyl-ethyl]-amide] yielded an IC50 of 1100 nM. `CS(=O)(=O)c1cc(C2(NC(=O)c3nccn4c(-c5ccc(F)cc5)ncc34)CC2)ccn1` [3-(4-Fluorophenyl)-imidazo[1,5-a]pyrazine-8-carboxylic acid [1-(2-methanesulfonyl-pyridin-4-yl)-cyclopropyl]-amide] showed an IC50 of 410 nM. Work on `CCC[C@H](NC(=O)c1nccn2c(-c3ccc(F)cc3)ncc12)c1ccnc(S(C)(=O)=O)c1` [3-(4-Fluorophenyl)-imidazo[1,5-a]pyrazine-8-carboxylic acid [(S)-1-(2-methanesulfonyl-pyridin-4-yl)-butyl]-amide] yielded an IC50 of 5 nM. `CC[C@H](NC(=O)c1nccn2c(-c3ccc(F)cc3)ncc12)c1ccnc(S(C)(=O)=O)c1` [3-(4-Fluorophenyl)-imidazo[1,5-a]pyrazine-8-carboxylic acid [(S)-1-(2-methanesulfonyl-pyridin-4-yl)-propyl]-amide] gave an IC50 of 30 nM. `CCC[C@H](NC(=O)c1nccn2c(-c3ccc(F)cc3)ncc12)c1cncc(S(C)(=O)=O)c1` [3-(4-Fluorophenyl)-imidazo[1,5-a]pyrazine-8-carboxylic acid [(S)-1-(5-methanesulfonyl-pyridin-3-yl)-butyl]-amide] was tested, and the IC50 was 6 nM. In the case of `CC[C@H](NC(=O)c1cccn2c(-c3ccc(F)cc3)ncc12)c1ccnc(S(C)(=O)=O)c1` [3-(4-Fluorophenyl)-imidazo[1,5-a]pyridine-8-carboxylic acid [(S)-1-(2-methanesulfonyl-pyridin-4-yl)-propyl]-amide], the IC50 is reported as 2 nM. Work on `CC[C@H](NC(=O)c1cccn2c(-c3ccc(F)cc3)ncc12)c1ccc(Br)nc1` [3-(4-Fluorophenyl)-imidazo[1,5-a]pyridine-8-carboxylic acid [(S)-1-(6-bromopyridin-3-yl)-propyl]-amide] yielded an IC50 of 29 nM. `CC[C@H](NC(=O)c1cccn2c(-c3ccc(F)cc3)ncc12)c1ccc(S(C)(=O)=O)nc1` [3-(4-Fluorophenyl)-imidazo[1,5-a]pyridine-8-carboxylic acid [(S)-1-(6-methanesulfonyl-pyridin-3-yl)-propyl]-amide] gave an IC50 of 17 nM. Work on `CS(=O)(=O)c1cccc(CNC(=O)c2cc(C#N)cc3c2ccn3-c2ccc(F)cc2)c1` [6-Cyano-1-(4-fluorophenyl)-1H-indole-4-carboxylic acid 3-methanesulfonyl-benzylamide] yielded an IC50 of 2 nM. Work on `CN1CCC(NS(=O)(=O)c2ccc(CNC(=O)c3cc(C#N)cc4c3ccn4-c3ccc(F)cc3)cc2)CC1` [6-Cyano-1-(4-fluorophenyl)-1H-indole-4-carboxylic acid 4-(1-methyl-piperidin-4-ylsulfamoyl)-benzylamide] yielded an IC50 of 18 nM. `CS(=O)(=O)c1ccc(CNC(=O)c2cc(C#N)cc3c2ccn3-c2ccc(F)cc2)cn1` [6-Cyano-1-(4-fluorophenyl)-1H-indole-4-carboxylic acid (6-methanesulfonyl-pyridin-3-ylmethyl)-amide] gave an IC50 of 4 nM. `CS(=O)(=O)Nc1ccc(CNC(=O)c2cc(C#N)cc3c2ccn3-c2ccc(F)cc2)cn1` [6-Cyano-1-(4-fluorophenyl)-1H-indole-4-carboxylic acid (6-methanesulfonylamino-pyridin-3-ylmethyl)-amide] gave an IC50 of 4 nM. `CS(=O)(=O)c1cc(C2(NC(=O)c3cc(C#N)cc4c3ccn4-c3ccc(F)cc3)CC2)ccn1` [6-Cyano-1-(4-fluorophenyl)-1H-indole-4-carboxylic acid [1-(2-methanesulfonyl-pyridin-4-yl)-cyclopropyl]-amide] gave an IC50 of 0.8 nM.
